# In WO2010003376A1, “Methods for treatment and/or prevention of cancer with andrographolide (and) and use thereof” (Chinese University of Hong Kong CUHK, priority 2008, dated 2010):
# Where two headings read alike, the source gives them in different places.
# How the values were obtained:
# [1] = test system: Clone 9, rat normal liver cells; test: Neutral red assay (cell viability), Clone 9; assay type: cell-based; details: for IC50: Rattus norvegicus, read-out: IC50 (concentration that reduces cell viability by 50%)
# [2] = test system: hepatocarcinogenesis in rats (DEN & CCl4); test: Gross examination of rat liver, DEN/CCl4 hepatocarcinogenesis; assay type: in vivo
# [3] = test system: rat liver (DEN & CCl4); test: Hematoxylin & Eosin staining of rat liver sections; assay type: in vivo; details: 10 mg/kg orally
# [4] = test system: GST-P; test: Immunohistochemical staining of GST-P foci in rat liver; assay type: in vivo
# [5] = test system: Bcl-2; test: Western blot of Bcl-2 in rat liver; assay type: in vivo; details: both experiments, 10 mg/kg orally
# [6] = test system: wild type p53; test: Immunoprecipitation and western blot of wild type p53 in rat liver nuclei; assay type: in vivo; details: 10 mg/kg orally
# [7] = test system: Mdm2; test: Western blot of Mdm2 in rat liver nuclei; assay type: in vivo; details: both experiments, 10 mg/kg orally, vs positive control (p < 0.05)
# [8] = test system: p21 (Waf1/Cip1/Sdi1); test: Western blot of p21 in rat liver; assay type: in vivo; details: both experiments, 10 mg/kg orally, vs positive control
# [9] = test system: gene expressions of HepG2 cells; test: cDNA microarray analysis of gene expression (human toxicology and drug metabolism); assay type: cell-based; details: 16 μM, 48 hrs, vs control
# [10] = test system: Bax; test: Western blot of Bax in rat liver; assay type: in vivo; details: both experiments, 10 mg/kg orally
# [11] = test system: HepG2 cells; test: Flow cytometry (cell cycle analysis, PI staining); assay type: cell-based, human
# [12] = test system: liver damage in rats (DEN & CCl4); test: Serum AST and ALT assays, DEN/CCl4 hepatocarcinogenesis; assay type: in vivo, rat; details: 10 mg/kg orally
# [13] = test system: p53 mRNA; test: Semi-quantitative RT-PCR of p53 mRNA in rat liver; assay type: in vivo; details: both experiments, 10 mg/kg orally, vs positive control (p < 0.05)
# [14] = test system: total p53 (wild type and mutant); test: Western blot of total p53 in rat liver nuclei; assay type: in vivo; details: 10 mg/kg orally
# [15] = test system: HepG2 cells, the human liver cancer cells; test: Neutral red assay (cell viability), HepG2; assay type: cell-based; details: for IC50: Homo sapiens, read-out: IC50 (concentration that reduces cell viability by 50%)
# [16] = test system: PCNA; test: Western blot of PCNA in rat liver; assay type: in vivo; details: 10 mg/kg orally; for PCNA expression (PCNA : β-actin ratio): vs positive control
# [17] = test system: HepG2 cells; test: DNA fragmentation (DNA gel electrophoresis); assay type: cell-based, human; details: 50 μM, 72 hrs
# [18] = test system: Mdm2 mRNA; test: Semi-quantitative RT-PCR of Mdm2 mRNA in rat liver; assay type: in vivo; details: both experiments, 10 mg/kg orally, vs positive control (p < 0.05)
# [19] = test system: hepatocarcinogenesis in rats (DEN & CCl4); test: Relative liver weight, DEN/CCl4 hepatocarcinogenesis; assay type: in vivo, rat; details: both promotion and progression, 10 mg/kg orally
# [20] = test system: WRL 68, human normal liver embryo cells; test: Neutral red assay (cell viability), WRL 68; assay type: cell-based; details: for IC50: Homo sapiens, WRL68, read-out: IC50 (concentration that reduces cell viability by 50%)
# [21] = progression experiment, p < 0.05
compound,measurement,setting,value
"C=C1CC[C@@H]2[C@](C)(CO)[C@H](O)CC[C@@]2(C)[C@@H]1C/C=C1/C(=O)OC[C@H]1O [AND, andrographolide]",cytotoxicity,"[1]; Clone 9, at a concentration of 18 μM (Fig. 3)",significant cytotoxicity was also detectable
same,IC50,"[1]; Clone 9, 24 hrs",22 µM
same,IC50,"[1]; Clone 9, 48 hrs",18 µM
same,IC50,"[1]; Clone 9, 72 hrs",18 µM
same,gross appearance of liver,"[2]; progression experiment, 10 mg/kg orally, 56th week","some nodules present on the surface of the AND-treated livers, but the structure of the livers generally resembled that of the normal livers"
same,gross appearance of liver,"[2]; promotion experiment, 10 mg/kg orally once daily, 28 weeks",had a smooth surface and generally resembled the negative control livers
same,liver histology (H & E staining),[3]; progression experiment,normal alignment of hepatocytes around central vein
same,liver histology (H & E staining),[3]; promotion experiment,Liver structure was restored and hepatocyte arrangement was not as distorted as that of the positive control sections. Vacuolization was reduced and distinct cytoplasm was visible
same,number and area of GST-P positive foci,"[4]; 10 mg/kg for 24 and 52 weeks, promotion and progression stages",a decrease in the number and area of GST-P positive foci
same,GST-P expression in liver section,"[4]; promotion experiment, 10 mg/kg orally",the expression of GST-P was present but the affected area was reduced
same,Bcl-2 expression,[5],an increase in Bcl-2 expression
same,Bcl-2 protein expression (Bcl-2 : β-actin ratio),[5]; vs positive control (p < 0.05),significantly lower
same,level of wild type p53 (wt. p53 : β-actin ratio),"[6]; progression experiment, vs positive control (p < 0.05)",a significant increase
same,level of wild type p53 (wt. p53 : β-actin ratio),"[6]; promotion experiment, vs positive control",no significant difference
same,levels of Mdm2 protein (Mdm2 : β-actin ratio),[7],significant decrease
same,levels of p21 (p21 : β-actin ratio),[8],"higher than positive control groups, but no significant difference is observed"
same,expression of BCL2L2 (Bcl-w) gene,[9],down-regulated
same,expression of BCL2 gene,[9],down-regulated
same,expression of CCND1 gene,[9],down-regulated
same,expression of CHEK2 gene,[9],down-regulated
same,expression of CYP 2A6 gene,[9],down-regulated
same,expression of CYP 2D6 gene,[9],down-regulated
same,expression of IL1B gene,[9],under-expressed
same,expression of NFKB2 gene,[9],under-expressed
same,expression of NQO1 (NAD(P)H dehydrogenase quinone 1) gene,[9],up-regulated
same,expression of RB1 gene,[9],up-regulated
same,expression of SOD1 (superoxide dismutase 1) gene,[9],up-regulated
same,expression of TYMS (thymidylate synthetase) gene,[9],up-regulated
same,expression of XDH (xanthine dehydrogenase) gene,[9],up-regulated
same,number of genes down-regulated 3-folds or more,[9],forty-two
same,number of genes up-regulated 3-folds or more,[9],six
same,Bax expression,[10],a reduction of Bax expression
same,protein levels of Bax (Bax : β-actin ratio),[10]; vs positive control (p < 0.05),significantly increased
same,percentage of cells suspended in the sub G1 phase of the cell cycle,"[11]; 25 μM (Fig. 7, 48 hrs)",13.1%
same,accumulation of cells in G0/G1 phase of the cell cycle,"[11]; 25 μM, 48 hrs (Fig. 7)",67.1%
same,populations of cells suspended in S and G2/M phases,"[11]; 12.5 and 25 μM AND, 48 hrs, vs control (P < 0.05)",significantly decreased
same,accumulation of cells in the sub G1 and G0/G1 phases,"[11]; 12.5 and 25 μM AND, 48 hrs, vs control cells",significantly induced the accumulation of cells
same,cells suspended in sub G1 phase,"[11]; 20 and 25 μM AND, 24 hrs, vs 1% DMSO",more cells were suspended in sub Gi phase than those treated with DMSO only
same,"population of cells suspended in G0/G1, S and G2/M phases","[11]; 20 and 25 μM AND, 24 hrs, vs control cells (P > 0.05)",no significant changes
same,serum ALT level,[12]; [21],significant reduction
same,serum AST level,[12]; [21],significant reduction
same,serum ALT level,"[12]; promotion experiment, p < 0.01",significant reduction
same,serum AST level,"[12]; promotion experiment, p < 0.01",significant reduction
same,p53 mRNA expression (p53 : β-actin),[13],significant reduction
same,total p53 protein level (discussion),[14]; AND-treated group,the total p53 protein was increased
same,levels of total p53 protein expression,"[14]; both experiments, vs negative control (no significant difference)",higher levels of total p53 protein expression
same,levels of total p53 (total p53 : β-actin ratio),"[14]; both experiments, vs positive control",no significant difference
same,inhibitory effect on the proliferation of HepG2,"[15]; HepG2, human liver cancer cell line (Fig. 1)",significantly inhibitory effect
same,IC50,"[15]; HepG2, 24 hrs",17.5 µM
same,IC50,"[15]; HepG2, 48 hrs",16 µM
same,IC50,"[15]; HepG2, 72 hrs",17 µM
same,IC50 for HepG2 cells compared with WRL 68 cells,"[15]; all three time periods (24, 48 and 72 hrs), P < 0.05",significantly lower
same,PCNA expression,[16]; both experiments,reduced in both experiments
same,PCNA expression (PCNA : β-actin ratio),[16]; progression experiment,The level of PCNA expression in DEN-CCl4 treated rat was found to be significantly higher than that in the negative control and AND-treated groups
same,PCNA expression (PCNA : β-actin ratio),[16]; promotion experiment,no significant difference
same,DNA fragmentation,[17],fragmentation at around 200 bp was detected
same,Mdm2 mRNA expression (Mdm2 : β-actin),[18],significantly reduced
same,relative liver weight (liver weight/body weight),[19]; vs negative control,No significant difference
same,relative liver weight (liver weight/body weight),[19]; vs positive control,significant reduction
same,IC50,"[20]; WRL 68, 24 hrs",57 µM
same,IC50,"[20]; WRL 68, 48 hrs",30 µM
same,IC50,"[20]; WRL 68, 72 hrs",35 µM
same,cytotoxicity,"[20]; WRL 68, at a concentration of 18 μM (Fig. 2)",significant cytotoxicity was also detectable
